Here are results for 23 molecules from patent US12410160B2 (Gilead Sciences, Inc., priority 2021, dated 2025).

For experiment [1], the target named is KHK-C expressed in NRK-52E cells (Homo sapiens (Human), UniProt P50053). Nature of the experiment: KHK-C Cell-based Assay (EC50), NRK CTG, fructose-mediated ATP-depletion.
In a further experiment the target is human KHK-C (Homo sapiens (Human), UniProt P50053). Nature of the experiment: KHK Biochemical Assay (IC50), ADP-Glo, KHK-C. Conditions: average of at least two separate assays. In short, it runs like this:
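His-tagged enzyme expressed in BL21 (DE3), Ni-NTA purified. Compounds, serially diluted 1:3 in DMSO, pre-incubated 30 min with enzyme in 50 mM Hepes pH 7.4, 140 mM KCl, 5 mM MgCl2, 0.01% Triton-X, then ATP and fructose added; 4 h at room temperature. ADP formation read by ADP-Glo luminescence.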
For orientation: ADP-Glo first removes unused ATP, then detects ADP through luciferase.

[2] abbreviates: read-out: NRK CTG EC50, NRK-52E cells, Cell-Titer Glo, 25 mM fructose.

Like-named read-outs stand apart in the source and are kept apart here.

Sequence of human KHK-C (P50053 whole entry): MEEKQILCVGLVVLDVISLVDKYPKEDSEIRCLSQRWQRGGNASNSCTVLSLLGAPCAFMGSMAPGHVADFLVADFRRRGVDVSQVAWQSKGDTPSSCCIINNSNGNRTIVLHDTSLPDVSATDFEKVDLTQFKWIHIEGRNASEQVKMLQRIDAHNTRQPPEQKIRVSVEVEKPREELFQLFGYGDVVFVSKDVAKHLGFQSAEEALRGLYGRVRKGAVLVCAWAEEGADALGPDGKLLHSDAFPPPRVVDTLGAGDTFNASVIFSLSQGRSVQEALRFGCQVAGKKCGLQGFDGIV
Sequence of KHK-C expressed in NRK-52E cells (P50053 whole entry): as above

`C[C@H]1CCN1c1nc2c(c(-c3cccc([C@H]4C[C@@H](C(=O)O)C4)c3)n1)CCC2` (single isomer, unassigned) [Example 440]: the 50% effective concentration (EC50) – broadly, the midpoint of the concentration-response curve – in experiment [1] (setting [2]) was 81.6 nM. Moreover, inhibition against human KHK-C was half-maximal at 6.2 nM (IC50).
Regarding `C[C@H]1CCN1c1nc2c(c(-c3cccc([C@H]4C[C@H](C(=O)O)C4)c3)n1)CCC2` (single isomer, unassigned) [Example 441], the EC50 in experiment [1] (setting [2]) stood at 211 nM. Further, at human KHK-C, it took 7 nM to reach half-maximal inhibition (IC50).
As to `C[C@H]1CCN1c1nc2c(c(-c3cccc([S+](C)[O-])c3)n1)CCC2` (stereo in doubt) [Example 400, (S)-2-(2-methylazetidin-1-yl)-4-(3-(methylsulfinyl)phenyl)-6,7-dihydro-5H-cyclopenta[d]pyrimidine], in experiment [1], the EC50 turned out to be 320 nM. Further, the IC50 (usually the concentration at which inhibition is half-maximal) against human KHK-C came to 156 nM.
`C[C@H]1CCN1c1nc2c(c(-c3cccc(CN4CCCS4(=O)=O)c3)n1)CCC2` [Example 75, (S)-2-(3-(2-(2-methylazetidin-1-yl)-6,7-dihydro-5H-cyclopenta[d]pyrimidin-4-yl)benzyl)isothiazolidine 1,1-dioxide] registered an EC50 in experiment [1] of 54.7 nM. For the same molecule, the IC50 at human KHK-C (ADP-Glo) came out at 18.9 nM.
In experiment [1], `C[C@H]1CNC(=O)c2ccc(-c3nc(N4C[C@@H](O)[C@@H]4C)nc4c3CCC4(F)F)cc2O1` [Example 87] gave an EC50 of 46 nM. On human KHK-C (ADP-Glo), this molecule gave an IC50 of 3.4 nM.
In experiment [1], `C[C@@H]1CNC(=O)c2ccc(-c3nc(N4C[C@@H](O)[C@@H]4C)nc4c3CCC4(F)F)cc2O1` [Example 94] came in with an EC50 of 84.1 nM. The same molecule displayed an IC50 against human KHK-C (ADP-Glo) of 8.4 nM.
As for `C[C@H]1[C@H](O)CN1c1nc2c(c(-c3ccc(C(=O)O)cc3)n1)CCC2` [Example 162, 4-(2-((2S,3R)-3-hydroxy-2-methylazetidin-1-yl)-6,7-dihydro-5H-cyclopenta[d]pyrimidin-4-yl)benzoic acid], in experiment [1], the concentration for a half-maximal effect (EC50) was greater than 5000 nM. The molecule further returned an IC50 on human KHK-C (ADP-Glo) of 93.1 nM.
The matching figures for `C[C@H]1CCN1c1nc2c(c(-c3ccc4cnccc4c3)n1)CCC2` [Example 163, (S)-6-(2-(2-methylazetidin-1-yl)-6,7-dihydro-5H-cyclopenta[d]pyrimidin-4-yl)isoquinoline]: 251 nM and 49 nM.
In the same order, the values of `C[C@H]1[C@H](O)CN1c1nc2c(c(-c3ccc4c(c3)OCCNC4=O)n1)CCC2` [Example 164, 8-(2-((2S,3R)-3-hydroxy-2-methylazetidin-1-yl)-6,7-dihydro-5H-cyclopenta[d]pyrimidin-4-yl)-3,4-dihydrobenzo[f][1,4]oxazepin-5(2H)-one] are 94.5 nM and 16.4 nM.
The molecule `C[C@H]1c2ccccc2CN1c1nc2c(c(-c3ccc(C(N)=O)cc3)n1)CCC2` [Example 167, (S)-4-(2-(1-methylisoindolin-2-yl)-6,7-dihydro-5H-cyclopenta[d]pyrimidin-4-yl)benzamide] registered an EC50 in experiment [1] greater than 5000 nM. Also, the IC50 on human KHK-C (ADP-Glo) was greater than 5000 nM.
Consider `C[C@H]1[C@H](O)CN1c1nc(-c2ccc(C(N)=O)nc2)c2c(n1)C(F)(F)CC2` [Example 168, 5-(7,7-difluoro-2-((2S,3R)-3-hydroxy-2-methylazetidin-1-yl)-6,7-dihydro-5H-cyclopenta[d]pyrimidin-4-yl)picolinamide], for which a half-maximal response in experiment [1] (EC50) required 144 nM. For the same molecule, on human KHK-C (ADP-Glo), the midpoint of inhibition, the IC50, lay at 23.3 nM.
In the same order, the values of `C[C@H]1[C@@H](O)CN1c1nc2c(c(-c3ccc(C(N)=O)cc3)n1)CCC2` [Example 169, 4-(2-((2S,3S)-3-hydroxy-2-methylazetidin-1-yl)-6,7-dihydro-5H-cyclopenta[d]pyrimidin-4-yl)benzamide] are greater than 5000 nM and 4430 nM.
In the same order, the values of `CNC(=O)c1ccc(-c2nc(N3C[C@@H](O)[C@@H]3C)nc3c2CCC3(F)F)cc1` [Example 171, 4-(7,7-difluoro-2-((2S,3R)-3-hydroxy-2-methylazetidin-1-yl)-6,7-dihydro-5H-cyclopenta[d]pyrimidin-4-yl)-N-methylbenzamide] are 165 nM and 23.5 nM.
`NC(=O)c1ccc(-c2nc(N3Cc4n[nH]cc4C3CO)nc3c2CCC3)cc1` (stereo not shown) [Example 172, 4-(2-(4-(hydroxymethyl)-2,6-dihydropyrrolo[3,4-c]pyrazol-5(4H)-yl)-6,7-dihydro-5H-cyclopenta[d]pyrimidin-4-yl)benzamide] came in with an EC50 in experiment [1] greater than 5000 nM. The molecule also came in with an IC50 at human KHK-C (ADP-Glo) greater than 5000 nM.
`NC(=O)c1ccc(-c2nc(N3CCn4nccc43)nc3c2CCC3)cc1` [Example 173, 4-(2-(2,3-dihydro-1H-imidazo[1,2-b]pyrazol-1-yl)-6,7-dihydro-5H-cyclopenta[d]pyrimidin-4-yl)benzamide] came in with an EC50 in experiment [1] greater than 5000 nM. The same molecule displayed an IC50 against human KHK-C (ADP-Glo) greater than 5000 nM.
In experiment [1], `NC(=O)c1ccc(-c2nc(N3CCn4cncc43)nc3c2CCC3)cc1` [Example 174, 4-(2-(2,3-dihydro-1H-imidazo[1,5-a]imidazol-1-yl)-6,7-dihydro-5H-cyclopenta[d]pyrimidin-4-yl)benzamide] displayed an EC50 greater than 5000 nM. This molecule registered an IC50 at human KHK-C (ADP-Glo) greater than 5000 nM.
In experiment [1], `C[C@H]1[C@H](O)CN1c1nc(-c2ccc(C(N)=O)cc2)c2c(n1)C1CC2C1` [Example 176] returned an EC50 of 2810 nM. The molecule also came in with an IC50 against human KHK-C (ADP-Glo) of 899 nM.
Consider `C[C@H]1COc2cc(-c3nc(N4C[C@@H](O)[C@@H]4C)nc4c3CCC4(F)F)ccc2C(=O)N1` [Example 179, (S)-8-(7,7-difluoro-2-((2S,3R)-3-hydroxy-2-methylazetidin-1-yl)-6,7-dihydro-5H-cyclopenta[d]pyrimidin-4-yl)-3-methyl-3,4-dihydrobenzo[f][1,4]oxazepin-5(2H)-one], for which the EC50 in experiment [1] came to 386 nM. For the same molecule, the IC50 against human KHK-C (ADP-Glo) stood at 34.8 nM.
In turn, `C[C@@H]1COc2cc(-c3nc(N4C[C@@H](O)[C@@H]4C)nc4c3CCC4(F)F)ccc2C(=O)N1` [Example 180, (R)-8-(7,7-difluoro-2-((2S,3R)-3-hydroxy-2-methylazetidin-1-yl)-6,7-dihydro-5H-cyclopenta[d]pyrimidin-4-yl)-3-methyl-3,4-dihydrobenzo[f][1,4]oxazepin-5(2H)-one] displayed an EC50 in experiment [1] of 177 nM. This molecule displayed an IC50 on human KHK-C (ADP-Glo) of 27.4 nM.
The matching figures for `CC(=O)Nc1cc(-c2nc(N3C[C@@H](O)[C@@H]3C)nc3c2CCC3(F)F)ccc1C(N)=O` [Example 181, 2-acetamido-4-(7,7-difluoro-2-((2S,3R)-3-hydroxy-2-methylazetidin-1-yl)-6,7-dihydro-5H-cyclopenta[d]pyrimidin-4-yl)benzamide]: 579 nM and 11 nM.
Molecule `C[C@H]1CCN1c1nc2c(c(-c3cn(C4CC4)nn3)n1)CCC2` [Example 644, 4-(1-cyclopropyltriazol-4-yl)-2-[(2S)-2-methylazetidin-1-yl]-6,7-dihydro-5H-cyclopenta[d]pyrimidine] registered an EC50 in experiment [1] of 709 nM.
Molecule `C[C@H]1CCN1c1nc2c(c(-c3cn(CCO)nn3)n1)CCC2` [Example 645, 2-[4-[2-[(2S)-2-methylazetidin-1-yl]-6,7-dihydro-5H-cyclopenta[d]pyrimidin-4-yl]triazol-1-yl]ethanol] showed an EC50 in experiment [1] of 399 nM.
In the case of `C[C@H]1CCN1c1nc(-c2ccc([C@H](N)C(F)F)cc2)c2c(n1)C(F)(F)CC2` [Example 650, (1S)-1-[4-[7,7-difluoro-2-[(2S)-2-methylazetidin-1-yl]-5,6-dihydrocyclopenta[d]pyrimidin-4-yl]phenyl]-2,2-difluoro-ethanamine], the EC50 in experiment [1] is 39.1 nM.
